Reference: patent US20090264392A1, “TREATING EOSINOPHILIC ESOPHAGITIS” (Meritage Pharma, Inc., priority 2008, published 2009)

How the values were obtained:
[1] = tested on: eosinophilic esophogitis (EoE) patients; experiment: Example 1: budesonide gel therapy in patients with EoE; format: in vivo, human; conditions: tolerance comparison; seven patients who received fluticasone and budesonide therapy
Protocol: Eighteen patients were entered into the study (mean age 41; 5 females; 13 males). 16 patients had more than 15 eos/HPF on tissue obtained from the esophagus by biopsy during endoscopy. […] Both these patients responded completely to steroids. The mean serum eosinophil count was 215. Three patients had normal endoscopies. Six patients had strictures. […] Mucosal fragility was described in one patient. […] 14 patients underwent allergy testing.
The following symptoms were recorded: dysphagia (18/18), heartburn (9/18), regurgitation (4/18), asthma (5/18), allergic skin disease (1/18), seasonal allergies (8/18), proton pump inhibitor (PPI) medication use to treat esophageal reflux disease (10/18), and history of food impaction (15/18).
Budesonide gel (3 mg/10 mL Rincinol) was formulated as provided below. Preparation involved accurate weighing and measuring of the ingredients. Trituration of the powder into the Rincinol liquid was performed using geometric dilution techniques. The product was stirred using a stir plate, packaged, and labeled.
The standard dose was 3 mg twice a day for one week, which was then decreased to once a day for six weeks. 11 of 18 patients received standard dosing. Six of 18 patients received an alternate treatment regiment of 3 mg twice a day for a variable treatment period of time of greater than one week. The longest of which was eight months. […]

[2] = tested on: patients with greater than 15 eos/HPF and solid food dysphagia (EoE); experiment: Example 2: BRG therapy of eosinophilic esophagitis in adults; format: in vivo, human; conditions: 8 patients who had previously received fluticasone
Protocol: An oral gel combining budesonide with the mucosal adherent preparation Rincinol (the combination referred to as “BRG”) was compounded. Patients with abnormal Mayo dysphagia questionnaires underwent EGD with biopsies. 16 patients with greater than 15 eos/HPF and solid food dysphagia were enrolled in the study and treated with BRG. Patients were instructed to take BRG 3mg/10 cc BID. If patients noted marked improvement at one week, they were switched to once daily BRG for 6 weeks; otherwise they were continued on BID BRG for a total of 6 weeks. Dysphagia symptoms and BRG side effects over the last two weeks of treatment were assessed by personal interview. Symptoms were evaluated on a scale of dysphagia resolution: <25%, 25-49%, 50-74%, 75-99% or complete resolution. Those patients, who had previously utilized topical fluticasone for EoE, were asked to compare BRG vs topical fluticasone with respect to treatment effect and tolerance.

C[C@@H]1C[C@H]2[C@@H]3C[C@H](F)C4=CC(=O)C=C[C@]4(C)[C@@]3(F)[C@@H](O)C[C@]2(C)[C@@]1(O)C(=O)SCF [fluticasone]
patients who preferred fluticasone [1]: Two of the seven
patients who favored fluticasone (tolerance) [2]: 25%
